Laboratory results as given in patent US8507488B2, “Fused nitrogen containing heterocycles and compositions thereof as kinase inhibitors” (IRM LLC, priority 2008, dated 2013).
pIC50: −log10 of the molar value.

Columns and labels:
Tel-TrkA = target: T1, Tel-TrkA (Homo sapiens, UniProt P04629); experiment: Inhibition of proliferation of Ba/F3 cells expressing Tel-TrkA (BaF3/Tel-TrkA, luciferase/Bright Glo readout); format: cell-based; conditions: read-out: Ba/F3 Tel-TrkA IC 50
T1 construct: dimerization domain of Tel (ETV6) transcription factor (fusion partner, human ETV6 P41212); expressed in transfected cells; host or cells: luciferase expressing Ba/F3 murine hematopoietic progenitor cells; the other entry of the earlier key: ETV6 (P41212, Transcription factor ETV6)
Experimental: (§1) Test compounds were dissolved in DMSO (10 mM) and transferred into 1.4 mL flat bottom or V-shaped Matrix tubes carrying a unique 2D matrix chip by individual compound hubs. The numbers of these chips were distinctively linked to the individual compound identification numbers. The stock solutions were stored at −20° C. if not used immediately. For the test procedure the vials were defrosted and identified by a scanner whereby a working sheet is generated that guides the subsequent working steps.
(§2) Compound dilutions were made in 384 well plates. This format enabled the assay of maximally 28 individual test compounds at 12 concentrations (single points) including 2 reference compounds. The dilution protocol included the production of pre-dilution plates, master plates and assay plates: • Compound plates: 30 μL of individual compound (10 mM) DMSO solution including standard compound were transferred into columns 1 and 13 of a 384 well plate. 20 μL of DMSO were added to the rest of the wells and the compounds were serially diluted (1:3) by transferring 10 μL from a well in column 1 or 13 to the next well in column 2 or 14 respectively and successively with the help of a Minitrack robot. • Assay plates: Identical assay plates were then prepared by adding […] each of compound dilutions of the compound plates into 384-well “assay plates”. In the following the compounds were mixed with 50 μL of assays components (cells or enzyme) and tested for their inhibitory activity.
(§3) Compounds of Formula (I) were tested for their antiproliferative effect on Ba/F3 cells expressing either Tel-TrkA, Tel-TrkB or Tel-TrkC and an additional panel of 34 selected diverse kinases activated by fusion to the dimerizing partners Bcr or Tel (Abl, A1K, BMX, EphA3, EphB2, FGFR2, FGFR3, FGFR4, FGR, FLT1, FLT3, FLT4, FMS, IGF1R, InsR, JAK1, JAK2, JAK3, KDR, Kit, Lck, Lyn, MER, MET, PDGFRb, RET, RON, Ros-1, Src, Aurora, TIE2, TYK2, Tie1, ZAP70). The antiproliferative effect of these compounds on the different cell lines and on the non transformed cells were tested at 12 different concentrations of 3-fold serially diluted compounds in 384 well plates as described above (in media lacking IL3). The IC50 values of the compounds the different cell lines were determined from dose response curves.
(§4) The cell line used is the luciferase expressing Ba/F3 murine hematopoietic progenitor cell line transformed with human Tel-TrkA, Tel-TrkB or Tel-TrkC cDNAs (Ba/F3 EN A/B/C). These cells maintained in RPMI/10% fetal bovine serum (RPMI/FCS) supplemented with penicillin 50 mg/mL, streptomycin 50 mg/mL and L-glutamine […]. Untransformed Ba/F3 cells were similarly maintained with the addition 5 ng/ml of murine recombinant IL3. 50 μl of a Ba/F3 or Ba/F3 EN A/B/C cell suspension were plated in Greiner 384 well microplates (white)) at a density of 2000 cells per well. […] The cells were incubated for 48 hours at 37° C., 5% CO2. 25 μl of Bright Glo® (Promega) luciferase substrate is added to each well. The emited luminiscence is quantified using the ACQUEST™ luminescence system (Molecular Devices). IC50 values were calculated by linear regression analysis of the percentage inhibition of each compound at 12 concentrations.

[1] = target: T2, full length rTrkA and mNGF (Rattus norvegicus, UniProt P35739); experiment: Inhibition of proliferation of Ba/F3 cells co-expressing full length rTrkA and mNGF (BaF3/TrkA-NFG); format: cell-based; conditions: BaF3 TRKA-NGF cells, CTG readout
T2 construct: co-expressing full length rTrkA and mNGF; expressed in transfected cells; host or cells: Ba/F3 cells

parental BaF3 cells = experiment: Proliferation of parental (untransformed) Ba/F3 cells maintained with IL3; format: cell-based, murine; conditions: Mus musculus, BaF3, parental Ba/F3 cells; read-out: Ba/F3 IC 50
Experimental: as §1, §2
The cell line used is the luciferase expressing Ba/F3 murine hematopoietic progenitor cell line transformed with human Tel-TrkA, Tel-TrkB or Tel-TrkC cDNAs (Ba/F3 EN A/B/C). These cells maintained in RPMI/10% fetal bovine serum (RPMI/FCS) supplemented with penicillin 50 mg/mL, streptomycin 50 mg/mL and L-glutamine […]. Untransformed Ba/F3 cells were similarly maintained with the addition 5 ng/ml of murine recombinant IL3. 50 μl of a Ba/F3 or Ba/F3 EN A/B/C cell suspension were plated in Greiner 384 well microplates (white)) at a density of 2000 cells per well. 50 nl of serially diluted test compound (10-0.0001 mM in DMSO solution) is added to each well. The cells were incubated for 48 hours at 37° C., 5% CO2. 25 μl of Bright Glo® (Promega) luciferase substrate is added to each well. The emited luminiscence is quantified using the ACQUEST™ luminescence system (Molecular Devices). IC50 values were calculated by linear regression analysis of the percentage inhibition of each compound at 12 concentrations.

KM12 luc = KM12 luc cell proliferation assay (Table 8); format: cell-based; conditions: KM12 luc cells; read-out: KM12 luc IC 50
Tel-TrkB = target: T3, Tel-TrkB (Homo sapiens, UniProt Q16620); experiment: Inhibition of proliferation of Ba/F3 cells expressing Tel-TrkB (BaF3/Tel-TrkB); format: cell-based; conditions: Ba/F3 Tel-TrkB cells; read-out: Ba/F3 Tel-TrkB IC 50
T3 construct: dimerization domain of Tel (ETV6) transcription factor (fusion partner, human ETV6 P41212); expressed in transfected cells; host or cells: luciferase expressing Ba/F3 murine hematopoietic progenitor cells; the other entry of the earlier key: ETV6 (P41212, Transcription factor ETV6)
Experimental: as §1, §2, §3, §4

T2 sequence (P35739 33-799): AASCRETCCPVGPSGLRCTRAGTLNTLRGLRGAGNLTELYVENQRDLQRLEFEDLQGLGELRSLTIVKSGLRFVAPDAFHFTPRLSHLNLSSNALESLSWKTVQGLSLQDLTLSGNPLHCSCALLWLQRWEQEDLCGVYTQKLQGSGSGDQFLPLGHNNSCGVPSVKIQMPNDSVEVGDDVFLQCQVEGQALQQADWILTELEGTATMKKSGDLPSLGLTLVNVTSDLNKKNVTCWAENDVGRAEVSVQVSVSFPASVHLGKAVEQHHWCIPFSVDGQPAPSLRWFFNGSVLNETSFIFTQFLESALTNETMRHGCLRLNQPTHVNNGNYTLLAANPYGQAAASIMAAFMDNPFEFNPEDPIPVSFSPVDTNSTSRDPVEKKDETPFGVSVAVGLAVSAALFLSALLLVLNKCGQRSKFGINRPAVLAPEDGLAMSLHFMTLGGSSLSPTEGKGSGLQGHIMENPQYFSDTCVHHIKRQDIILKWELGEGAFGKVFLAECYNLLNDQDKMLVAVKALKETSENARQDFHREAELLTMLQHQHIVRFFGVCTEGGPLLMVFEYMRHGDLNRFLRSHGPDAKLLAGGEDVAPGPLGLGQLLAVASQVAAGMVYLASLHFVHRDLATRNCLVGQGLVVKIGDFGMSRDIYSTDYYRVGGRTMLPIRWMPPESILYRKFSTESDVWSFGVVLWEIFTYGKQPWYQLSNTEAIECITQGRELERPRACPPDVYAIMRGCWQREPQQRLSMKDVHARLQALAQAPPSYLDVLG
T2 sequence (P01139 122-241 partner): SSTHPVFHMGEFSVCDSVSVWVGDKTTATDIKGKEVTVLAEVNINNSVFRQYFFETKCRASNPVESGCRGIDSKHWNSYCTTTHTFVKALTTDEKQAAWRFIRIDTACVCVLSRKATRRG
T1 sequence (P04629 510-796 limits assumed): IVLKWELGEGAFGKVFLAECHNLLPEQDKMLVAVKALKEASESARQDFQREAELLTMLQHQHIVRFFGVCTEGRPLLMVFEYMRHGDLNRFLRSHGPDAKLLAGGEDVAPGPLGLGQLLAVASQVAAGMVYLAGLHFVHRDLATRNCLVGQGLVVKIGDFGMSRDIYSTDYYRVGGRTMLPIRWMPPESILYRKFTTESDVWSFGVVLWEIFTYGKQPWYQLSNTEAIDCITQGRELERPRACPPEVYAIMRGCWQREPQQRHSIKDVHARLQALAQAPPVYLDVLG
T3 sequence (Q16620 538-822 limits assumed): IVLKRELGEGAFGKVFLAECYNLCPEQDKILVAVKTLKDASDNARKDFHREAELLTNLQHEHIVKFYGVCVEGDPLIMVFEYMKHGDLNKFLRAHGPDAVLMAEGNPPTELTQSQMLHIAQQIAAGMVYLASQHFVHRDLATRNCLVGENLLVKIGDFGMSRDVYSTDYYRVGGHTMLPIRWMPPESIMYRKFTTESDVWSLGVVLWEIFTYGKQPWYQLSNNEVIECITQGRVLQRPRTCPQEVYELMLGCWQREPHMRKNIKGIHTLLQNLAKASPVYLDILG

Cc1cnc(-c2cccc(-c3cnc4ccc(N5CCCC5c5cccc(F)c5)nn34)n2)[nH]1 (stereo not drawn) [Table 7-Compound 3]
pIC50 (Tel-TrkA): 8.16 | BaF3 TRKA-NGF CTG IC 50 [1]: 19 nM | pIC50 (parental BaF3 cells): 5.41 | pIC50 (KM12 luc): 7.77 | pIC50 (Tel-TrkB): 8.18

OCc1cccc(-c2cnc3ccc(N4CCCC4c4cccc(F)c4)nn23)n1 (stereo not drawn) [Table 7-Compound 2]
pIC50 (Tel-TrkA): 7.74 | BaF3 TRKA-NGF CTG IC 50 [1]: 31 nM | pIC50 (parental BaF3 cells): < 5.00 | pIC50 (KM12 luc): 7.59 | pIC50 (Tel-TrkB): 7.89

O=C(NCCO)C1CCN(c2cccc(-c3cnc4ccc(N5CCOCC5c5cccc(F)c5)nn34)n2)CC1 (stereo not drawn) [Table 7-Compound 12]
pIC50 (Tel-TrkA): 8.21 | BaF3 TRKA-NGF CTG IC 50 [1]: 8.1 nM | pIC50 (parental BaF3 cells): < 5.00 | pIC50 (KM12 luc): 8.92 | pIC50 (Tel-TrkB): 8.17

CCN(CC)CCNc1cccc(-c2cnc3ccc(N4CCCC4c4cccc(F)c4)nn23)n1 (stereo not drawn) [Table 4-Compound 14]
pIC50 (Tel-TrkA): 7.68 | BaF3 TRKA-NGF CTG IC 50 [1]: 45.2 nM | pIC50 (parental BaF3 cells): 5.24 | pIC50 (KM12 luc): 7.51 | pIC50 (Tel-TrkB): 7.83

OC1CCN(c2ccc(-c3cccc(-c4cnc5ccc(N6CCCC6c6cccc(F)c6)nn45)n3)cn2)CC1 (stereo not drawn) [Table 7-Compound 61]
pIC50 (Tel-TrkA): 8.09 | BaF3 TRKA-NGF CTG IC 50 [1]: 9.8 nM | pIC50 (parental BaF3 cells): < 5.00 | pIC50 (KM12 luc): 8.40 | pIC50 (Tel-TrkB): 8.10

N#Cc1cc(-c2cnc3ccc(N4CCOCC4c4cccc(F)c4)nn23)ccc1N1CCC(O)CC1 (stereo not drawn) [Table 2-Compound 7]
pIC50 (Tel-TrkA): 7.08 | BaF3 TRKA-NGF CTG IC 50 [1]: 550 nM | pIC50 (parental BaF3 cells): < 5.00 | pIC50 (KM12 luc): 6.85 | pIC50 (Tel-TrkB): 6.64

O=C(O)C1CN(c2cccc(-c3cnc4ccc(N5CCCC5c5cccc(F)c5)nn34)n2)C1 (stereo not drawn) [Table 7-Compound 116]
pIC50 (Tel-TrkA): 8.52 | BaF3 TRKA-NGF CTG IC 50 [1]: 8 nM | pIC50 (parental BaF3 cells): < 5.04 | pIC50 (KM12 luc): 8.52 | pIC50 (Tel-TrkB): 8.52

OCC(O)CNc1cccc(-c2cnc3ccc(N4CCCC4c4cccc(F)c4)nn23)n1 (stereo not drawn) [Table 4-Compound 16]
pIC50 (Tel-TrkA): 8.17 | BaF3 TRKA-NGF CTG IC 50 [1]: 5.2 nM | pIC50 (parental BaF3 cells): < 5.00 | pIC50 (KM12 luc): 8.66 | pIC50 (Tel-TrkB): 8.82

Fc1cccc(C2COCCN2c2ccc3ncc(-c4cccc(OC5CCNCC5)n4)n3n2)c1 (stereo not drawn) [Table 2-Compound 18]
pIC50 (Tel-TrkA): 7.44 | BaF3 TRKA-NGF CTG IC 50 [1]: 56 nM | pIC50 (parental BaF3 cells): < 5.00 | pIC50 (KM12 luc): 7.66 | pIC50 (Tel-TrkB): 7.44

N#Cc1cc(-c2cnc3ccc(N4CCOCC4c4cccc(F)c4)nn23)ccc1F (stereo not drawn) [Table 2-Compound 6]
pIC50 (Tel-TrkA): 7.24 | BaF3 TRKA-NGF CTG IC 50 [1]: 78 nM | pIC50 (parental BaF3 cells): < 5.00 | pIC50 (KM12 luc): 7.25 | pIC50 (Tel-TrkB): 7.36

Fc1cccc(C2COCCN2c2ccc3ncc(-c4ccccn4)n3n2)c1 (stereo not drawn) [Table 2-Compound 4]
pIC50 (Tel-TrkA): 8.07 | BaF3 TRKA-NGF CTG IC 50 [1]: 17 nM | pIC50 (parental BaF3 cells): < 5.00 | pIC50 (KM12 luc): 8.08 | pIC50 (Tel-TrkB): 8.24

Fc1cccc(C2COCCN2c2ccc3ncc(-c4cccc(N5CC6CC5CN6)n4)n3n2)c1 (stereo not drawn) [Table 7-Compound 9]
pIC50 (Tel-TrkA): 7.23 | BaF3 TRKA-NGF CTG IC 50 [1]: 53 nM | pIC50 (parental BaF3 cells): < 5.00 | pIC50 (KM12 luc): 7.85 | pIC50 (Tel-TrkB): 7.20
